According to patent publication US7018807B2, “Method and medium for detecting vancomycin-resistant enterococcus” (priority 1996, dated 2006):

Tests used:
Test in all cases: MIC for vancomycin
Assay type in all cases: cell-based
[1] = test system: Enterococcus faecium VRE02; conditions: VRE02, read-out: MIC (minimum inhibitory concentration for vancomycin)
[2] = test system: Enterococcus faecium VRE03; conditions: strain VRE03, read-out: MIC (minimum inhibitory concentration for vancomycin)
[3] = test system: Enterococcus faecium VRE04; conditions: strain VRE04, read-out: MIC (minimum inhibitory concentration for vancomycin)
[4] = test system: Enterococcus faecium VRE05; conditions: strain VRE05, read-out: MIC (minimum inhibitory concentration for vancomycin)
[5] = test system: Enterococcus faecium VRE06; conditions: strain VRE06, read-out: MIC (minimum inhibitory concentration for vancomycin)
[6] = test system: Enterococcus faecium VRE07; conditions: strain VRE07, read-out: MIC (minimum inhibitory concentration for vancomycin)

Measured: MIC

CN[C@H](CC(C)C)C(=O)N[C@H]1C(=O)N[C@@H](CC(N)=O)C(=O)N[C@H]2C(=O)N[C@H]3C(=O)N[C@H](C(=O)N[C@H](C(=O)O)c4cc(O)cc(O)c4-c4cc3ccc4O)[C@H](O)c3ccc(c(Cl)c3)Oc3cc2cc(c3O[C@@H]2O[C@H](CO)[C@@H](O)[C@H](O)[C@H]2O[C@H]2C[C@](C)(N)[C@H](O)[C@H](C)O2)Oc2ccc(cc2Cl)[C@H]1O [vancomycin]
> 256 µg/mL: all assays above
